Key:
[1] = biological target: T1, AtDPE1 (disproportionating enzyme 1) (Arabidopsis thaliana, UniProt Q9LV91); experiment: turnover in crystal (transglycosylation during soak), X-ray crystallography; format: biochemical; conditions: 10 mM soak, pH 8.0; intact maltotriose not seen, longer malto-oligosaccharide bound
T1 construct: gene DPE1; residues 46-576, transit peptide removed, N-terminal His6 tag kept (pET151/D-TOPO), homodimer
T1 sequence (Q9LV91 46-576): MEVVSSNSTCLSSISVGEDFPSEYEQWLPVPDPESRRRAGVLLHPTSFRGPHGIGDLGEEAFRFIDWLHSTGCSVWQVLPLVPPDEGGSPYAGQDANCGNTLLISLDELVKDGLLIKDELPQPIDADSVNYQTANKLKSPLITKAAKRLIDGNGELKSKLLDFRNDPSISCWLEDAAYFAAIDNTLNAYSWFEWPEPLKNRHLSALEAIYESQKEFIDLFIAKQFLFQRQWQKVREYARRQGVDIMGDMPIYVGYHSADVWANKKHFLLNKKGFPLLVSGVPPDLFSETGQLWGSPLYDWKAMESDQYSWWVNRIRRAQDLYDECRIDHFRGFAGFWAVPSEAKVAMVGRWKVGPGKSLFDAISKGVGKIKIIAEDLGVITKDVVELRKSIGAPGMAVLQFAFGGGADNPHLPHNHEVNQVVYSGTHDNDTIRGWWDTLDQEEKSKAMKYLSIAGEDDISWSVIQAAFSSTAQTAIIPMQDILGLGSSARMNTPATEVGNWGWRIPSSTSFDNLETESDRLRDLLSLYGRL

[2] = biological target: T1, AtDPE1 (disproportionating enzyme 1); experiment: X-ray crystallography, crystal soak; format: biochemical; conditions: covalent; 10 mM soak, pH 8.0; only the maltosyl unit (subsites -2, -1) linked to Asp-373 seen, from slow cleavage; 2.30 Å

Compound	turnover in crystal (transglycosylation during soak), X-ray crystallography [1]	X-ray crystallography, crystal soak [2]
OC[C@H]1O[C@H](O[C@H]2[C@H](O)[C@@H](O)[C@@H](O[C@H]3[C@H](O)[C@@H](O)C(O)O[C@@H]3CO)O[C@@H]2CO)[C@H](O)[C@@H](O)[C@@H]1O (some centres unmarked) [MA3, maltotriose]	malto-oligosaccharide in each active site, indicative of transglycosylation reactions occurring during crystal soaking	
OC[C@H]1O[C@@H]2O[C@H]3[C@H](O)[C@@H](O)[C@@H](O[C@H]4[C@H](O)[C@@H](O)[C@@H](O[C@H]5[C@H](O)[C@@H](O)[C@@H](O[C@H]6[C@H](O)[C@@H](O)[C@@H](O[C@H]7[C@H](O)[C@@H](O)[C@@H](O[C@H]8[C@H](O)[C@@H](O)[C@@H](O[C@H]1[C@H](O)[C@H]2O)O[C@@H]8CO)O[C@@H]7CO)O[C@@H]6CO)O[C@@H]5CO)O[C@@H]4CO)O[C@@H]3CO [BCD, β-cyclodextrin]		The covalently bound donor most likely resulted from a slow hydrolysis of β-cyclodextrin
